Measured values taken from patent publication US10125134B2 (Mirati Therapeutics, Inc., priority 2016, dated 2018).
Read-outs that look alike come from different tables or passages of the source.

What was measured:
KRas G12C = KRas G12C (Homo sapiens, UniProt P01116, C118S/C51S/C80L/G12C); assay: KRas G12C Modification Assay (LCMS detection of covalent adduct); format: binding
Outline: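 Cys-light KRas G12C mutant protein incubated with compound in K-Ras assay buffer, reactions quenched at set time points with 25 mM acetic acid and analysed by intact-protein LC/MS on a C-3 column. Deconvoluted mass heights expressed as percent of control (POC) relative to compound-free protein.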

[1] = tested on: NCI-H358 cells (express KRas G12C), Phospho-ERK; assay: Cellular inhibition of KRas G12C: Phospho-ERK in NCI-H358 cells; format: cell-based; settings: Homo sapiens
Outline: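 IC50 derived by 4-parameter fit of GAPDH-normalized pERK(Thr202/Tyr204) signal, as percent of DMSO control. Signal came from in-cell immunodetection with infrared secondaries after 3 h compound exposure of KRas G12C NCI-H358 cells at 0.5% DMSO.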

[2] = normalized percent of control, tested at 5 μM concentration for 3 hours
[3] = NCI-H358, 3 h, pERK(Thr202/Tyr204) normalized with GAPDH, NCI-H358 cells, 3 hours, read-out: IC50
[4] = pERK(Thr202/Tyr204) normalized with GAPDH, NCI-H358 cells, 3 hours, read-out: IC50

| SMILES | POC (KRas G12C; [2]) | IC50 [1, 3] [µM] | IC50 [1, 4] [µM] | POC (KRas G12C; 5 µM) | IC50 ([1]; NCI-H358, 3 h) [µM] |
| --- | --- | --- | --- | --- | --- |
| C=CC(=O)N1CCN(c2nc(OC[C@@H]3CCCN3C)nc3c2CCN(c2c(OC)ccc4[nH]ncc24)C3)CC1 [Example 157, (S)-1-(4-(7-(5-methoxy-1H-indazol-4-yl)-2-((1-methylpyrrolidin-2-yl)methoxy)-5,6,7,8-tetrahydropyrido[3,4-d]pyrimidin-4-yl)piperazin-1-yl)prop-2-en-1-one] | C (“C”>50% POC) | > 1 |  |  |  |
| C=CC(=O)N1CCN(c2nc(OC[C@@H]3CCCN3C)nc3c2CCN(c2ccccc2C(C)C)C3)CC1 [Example 158, 1-[4-[7-(2-isopropylphenyl)-2-[[(2S)-1-methylpyrrolidin-2-yl]methoxy]-6,8-dihydro-5H-pyrido[3,4-d]pyrimidin-4-yl]piperazin-1-yl]prop-2-en-1-one] | C (“C”>50% POC) |  | > 1 |  |  |
| C=CC(=O)N1CCN(c2nc(OC[C@@H]3CCCN3C)nc3c2CCN(c2ccccc2C(F)(F)F)C3)CC1 [Example 159, (S)-1-(4-(2-((1-methylpyrrolidin-2-yl)methoxy)-7-(2-(trifluoromethyl)phenyl)-5,6,7,8-tetrahydropyrido[3,4-d]pyrimidin-4-yl)piperazin-1-yl)prop-2-en-1-one] | C (“C”>50% POC) | > 1 |  |  |  |
| C=CC(=O)N1CCN(c2nc(OCCCN3CCCCC3)nc3c2CCN(c2c(C)ccc4[nH]ncc24)C3)CC1 [Example 160, 1-(4-(7-(5-methyl-1H-indazol-4-yl)-2-(3-(piperidin-1-yl)propoxy)-5,6,7,8-tetrahydropyrido[3,4-d]pyrimidin-4-yl)piperazin-1-yl)prop-2-en-1-one] | C (“C”>50% POC) |  | > 1 |  |  |
| C=CC(=O)N1CCN(c2nc(OCC3CCN(C)C3)nc3c2CCN(c2c(C)ccc4[nH]ncc24)C3)CC1 (stereo not shown) [Example 161, 1-[4-[7-(5-methyl-1H-indazol-4-yl)-2-[(1-methylpyrrolidin-3-yl)methoxy]-6,8-dihydro-5H-pyrido[3,4-d]pyrimidin-4-yl]piperazin-1-yl]prop-2-en-1-one] | C (“C”>50% POC) |  | > 1 |  |  |
| C=CC(=O)N1CCN(c2nc(O[C@H](C)CN(C)C)nc3c2CCN(c2c(C)ccc4[nH]ncc24)C3)CC1 [Example 162, 1-[4-[2-[(1R)-2-(dimethylamino)-1-methyl-ethoxy]-7-(5-methyl-1H-indazol-4-yl)-6,8-dihydro-5H-pyrido[3,4-d]pyrimidin-4-yl]piperazin-1-yl]prop-2-en-1-one] | B (“B”>25% POC−≤50% POC) |  | > 1 |  |  |
| C=CC(=O)N1CCN(c2nc(OCCCN3CCOCC3)nc3c2CCN(c2c(F)c(O)cc4ccccc24)C3)CC1 [Example 165, 1-[4-[7-(2-fluoro-3-hydroxy-1-naphthyl)-2-(3-morpholinopropoxy)-6,8-dihydro-5H-pyrido[3,4-d]pyrimidin-4-yl]piperazin-1-yl]prop-2-en-1-one] |  |  |  | C (key: “A”≤25% POC; “B”>25% POC−≤50% POC; “C”>50% POC) | > 1 |
| C=CC(=O)N1CCN(c2nc(OCCCN3CCOCC3)nc3c2CCN(c2cc(O)cc4sc(C)nc24)C3)CC1 [Example 166, 1-[4-[7-(6-hydroxy-2-methyl-1,3-benzothiazol-4-yl)-2-(3-morpholinopropoxy)-6,8-dihydro-5H-pyrido[3,4-d]pyrimidin-4-yl]piperazin-1-yl]prop-2-en-1-one] |  |  |  | B (key: “A”≤25% POC; “B”>25% POC−≤50% POC; “C”>50% POC) | > 1 |
| C=CC(=O)N1CCN(c2nc(OCCCN3CCOCC3)nc3c2CCN(c2cc(O)cc4cc(C)[nH]c24)C3)CC1 [Example 167, 1-(4-(7-(5-hydroxy-2-methyl-1H-indol-7-yl)-2-(3-morpholinopropoxy)-5,6,7,8-tetrahydropyrido[3,4-d]pyrimidin-4-yl)piperazin-1-yl)prop-2-en-1-one] | B (“B”>25% POC−≤50% POC) |  | > 1 |  |  |
| C=CC(=O)N1CCN(c2nc(OCCN(C)C)nc3c2CCN(c2cc(O)cc4ccccc24)C3)CC1CC#N (stereo not shown) [Example 170, 2-(1-acryloyl-4-(2-(2-(dimethylamino)ethoxy)-7-(3-hydroxynaphthalen-1-yl)-5,6,7,8-tetrahydropyrido[3,4-d]pyrimidin-4-yl)piperazin-2-yl)acetonitrile] | C (“C”>50% POC) |  | 0.0001 to 1 |  |  |
| C=CC(=O)N1CCN(c2nc(OCCN(C)C)nc3c2CCN(c2cc(O)cc4ccccc24)C3)CC1CCO (stereo not shown) [Example 171, 1-(4-(2-(2-(dimethylamino)ethoxy)-7-(3-hydroxynaphthalen-1-yl)-5,6,7,8-tetrahydropyrido[3,4-d]pyrimidin-4-yl)-2-(2-hydroxyethyl)piperazin-1-yl)prop-2-en-1-one] |  |  |  | C (key: “A”≤25% POC; “B”>25% POC−≤50% POC; “C”>50% POC) | > 1 |
| C=CC(=O)N1CCN(c2nc(OCCN(C)C)nc3c2CCN(c2cc(O)cc4ccccc24)C3)C(CCO)C1 (stereo not shown) [Example 172, 1-(4-(2-(2-(dimethylamino)ethoxy)-7-(3-hydroxynaphthalen-1-yl)-5,6,7,8-tetrahydropyrido[3,4-d]pyrimidin-4-yl)-3-(2-hydroxyethyl)piperazin-1-yl)prop-2-en-1-one] | C (“C”>50% POC) | > 1 |  |  |  |
| C=CC(=O)N1CCN(c2nc(OCCCN3CCOCC3)nc3c2CCN(c2c(C)c(O)cc4ccccc24)C3)CC1 [Example 173, 1-(4-(7-(3-hydroxy-2-methylnaphthalen-1-yl)-2-(3-morpholinopropoxy)-5,6,7,8-tetrahydropyrido[3,4-d]pyrimidin-4-yl)piperazin-1-yl)prop-2-en-1-one] | C (“C”>50% POC) |  | > 1 |  |  |
| C=CC(=O)N1CCN(c2nc(OC[C@@H]3CCCN3C)nc3c2CCN(c2c(C)c(O)cc4ccccc24)C3)CC1 [Example 175, (S)-1-(4-(7-(3-hydroxy-2-methylnaphthalen-1-yl)-2-((1-methylpyrrolidin-2-yl)methoxy)-5,6,7,8-tetrahydropyrido[3,4-d]pyrimidin-4-yl)piperazin-1-yl)prop-2-en-1-one] | C (“C”>50% POC) |  | 0.0001 to 1 |  |  |
| C=CC(=O)N1CCN(c2nc(OC[C@@H]3CCN(C)C3)nc3c2CCN(c2cccc4ccccc24)C3)CC1CC#N (stereo partly drawn) [Example 177, 2-[4-[2-[[(3R)-1-methylpyrrolidin-3-yl]methoxy]-7-(1-naphthyl)-6,8-dihydro-5H-pyrido[3,4-d]pyrimidin-4-yl]-1-prop-2-enoyl-piperazin-2-yl]acetonitrile] | C (“C”>50% POC) |  | 0.0001 to 1 |  |  |

The next lines start with results.

| POC (KRas G12C; [2]) | SMILES | IC50 [1, 3] [µM] | IC50 [1, 4] [µM] | POC (KRas G12C; 5 µM) | IC50 ([1]; NCI-H358, 3 h) [µM] |
| --- | --- | --- | --- | --- | --- |
| C (“C”>50% POC) | C=CC(=O)N1CCN(c2nc(OCCN(CC)CC)nc3c2CCN(c2c(C)ccc4[nH]ncc24)C3)CC1 [Example 163, 1-(4-(2-(2-(diethylamino)ethoxy)-7-(5-methyl-1H-indazol-4-yl)-5,6,7,8-tetrahydropyrido[3,4-d]pyrimidin-4-yl)piperazin-1-yl)prop-2-en-1-one] |  | > 1 |  |  |
| C (“C”>50% POC) | C=CC(=O)N1CCN(c2nc(OCCN3CCCCC3)nc3c2CCN(c2c(C)ccc4[nH]ncc24)C3)CC1 [Example 164] |  | > 1 |  |  |
| C (“C”>50% POC) | C=CC(=O)N1CCN(c2nc(OCCCN3CCOCC3)nc3c2CCN(c2cc(O)cc4ccccc24)C3)C(CO)C1 (stereo not shown) [Example 168, 1-(3-(hydroxymethyl)-4-(7-(3-hydroxynaphthalen-1-yl)-2-(3-morpholinopropoxy)-5,6,7,8-tetrahydropyrido[3,4-d]pyrimidin-4-yl)piperazin-1-yl)prop-2-en-1-one] |  | > 1 |  |  |
| C (“C”>50% POC) | C=CC(=O)N1CCN(c2nc(OC[C@@H]3CCCN3C)nc3c2CCN(c2cc(O)cc4ccccc24)C3)C(CO)C1 (stereo partly drawn) [Example 169, 1-[3-(hydroxymethyl)-4-[7-(3-hydroxy-1-naphthyl)-2-[[(2S)-1-methylpyrrolidin-2-yl]methoxy]-6,8-dihydro-5H-pyrido[3,4-d]pyrimidin-4-yl]piperazin-1-yl]prop-2-en-1-one] | 0.0001 to 1 |  |  |  |
| C (“C”>50% POC) | C=CC(=O)N1CCN(c2nc(OC[C@H]3CCC(C)(C)N3)nc3c2CCN(c2cc(O)cc4ccccc24)C3)CC1 [Example 174, (R)-1-(4-(2-((5,5-dimethylpyrrolidin-2-yl)methoxy)-7-(3-hydroxynaphthalen-1-yl)-5,6,7,8-tetrahydropyrido[3,4-d]pyrimidin-4-yl)piperazin-1-yl)prop-2-en-1-one] | > 1 |  |  |  |
| C (“C”>50% POC) | C=CC(=O)N1CCN(c2nc(OCCN(C)C)nc3c2CCN(c2cc(O)cc4ccccc24)C3)C[C@@H]1CC#N [Example 176, 2-[(2S)-4-[2-[2-(dimethylamino)ethoxy]-7-(3-hydroxy-1-naphthyl)-6,8-dihydro-5H-pyrido[3,4-d]pyrimidin-4-yl]-1-prop-2-enoyl-piperazin-2-yl]acetonitrile] | 0.0001 to 1 |  |  |  |
| C (“C”>50% POC) | C=CC(=O)N1CCN(c2nc(OC[C@H]3CCCN3C)nc3c2CCN(c2cc(O)cc4ccccc24)C3)CC1CC#N (stereo partly drawn) [Example 178, 2-[4-[7-(3-hydroxy-1-naphthyl)-2-[[(2R)-1-methylpyrrolidin-2-yl]methoxy]-6,8-dihydro-5H-pyrido[3,4-d]pyrimidin-4-yl]-1-prop-2-enoyl-piperazin-2-yl]acetonitrile] | 0.0001 to 1 |  |  |  |
| C (“C”>50% POC) | C=CC(=O)N1CCN(c2nc(OC[C@@H]3CCN(C)C3)nc3c2CCN(c2cc(O)cc4ccccc24)C3)CC1CC#N (stereo partly drawn) [Example 179, 2-[4-[7-(3-hydroxy-1-naphthyl)-2-[[(3R)-1-methylpyrrolidin-3-yl]methoxy]-6,8-dihydro-5H-pyrido[3,4-d]pyrimidin-4-yl]-1-prop-2-enoyl-piperazin-2-yl]acetonitrile] | 0.0001 to 1 |  |  |  |
